Laboratory results: patent US20230416227A1, “PLASMA KALLIKREIN INHIBITORS” (Merck Sharp & Dohme LLC, priority 2020, published 2023)

target: T1, Human plasma kallikrein (Homo sapiens, UniProt P03952); assay: Plasma Kallikrein Assay; type: biochemical; details: purified Human plasma kallikrein 0.5 nM, substrate Acetyl-K-P-R-AFC, pH 7.4
T1 construct: yields a heavy chain (371 amino acids) and a light chain (248 amino acids); purchased Enzyme Research Laboratories
T1 sequence (P03952 391-638 limits assumed): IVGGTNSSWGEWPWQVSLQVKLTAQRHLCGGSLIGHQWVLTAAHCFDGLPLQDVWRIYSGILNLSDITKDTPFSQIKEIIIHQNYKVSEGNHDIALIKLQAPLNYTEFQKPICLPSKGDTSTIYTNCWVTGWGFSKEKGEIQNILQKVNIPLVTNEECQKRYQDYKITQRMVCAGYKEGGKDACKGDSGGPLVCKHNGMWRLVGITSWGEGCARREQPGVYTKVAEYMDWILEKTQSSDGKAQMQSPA
T1 sequence (P03952 20-390 partner limits assumed): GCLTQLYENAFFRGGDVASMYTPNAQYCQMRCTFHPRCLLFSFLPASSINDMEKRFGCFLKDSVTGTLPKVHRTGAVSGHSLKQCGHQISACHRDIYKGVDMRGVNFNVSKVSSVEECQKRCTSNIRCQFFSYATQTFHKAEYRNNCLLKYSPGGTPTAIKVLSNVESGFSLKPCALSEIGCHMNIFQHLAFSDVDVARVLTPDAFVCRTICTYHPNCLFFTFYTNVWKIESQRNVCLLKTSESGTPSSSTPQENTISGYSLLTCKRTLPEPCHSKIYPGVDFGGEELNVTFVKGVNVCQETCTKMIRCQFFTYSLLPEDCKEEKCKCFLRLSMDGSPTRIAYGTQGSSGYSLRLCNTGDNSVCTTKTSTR

IC50 [nM]	Compound
3.7	O=C(Nc1cnn(Cc2cnc(N3C[C@H]4C[C@H]4[C@H]3CO)nc2)c1)c1cncc(-c2c(C(F)F)ccc(Cl)c2F)n1 [Example 73, 6-(3-Chloro-6-(difluoromethyl)-2-fluorophenyl)-N-(1-((2-((1R,2S,5S)-2-(hydroxymethyl)-3-azabicyclo[3.1.0]hexan-3-yl)pyrimidin-5-yl)methyl)-1H-pyrazol-4-yl)pyrazine-2-carboxamide]
25.9	CC(c1cnc(N2CC[C@H](O)C2)nc1)n1cc(NC(=O)c2cncc(-c3c(C(F)F)ccc(Cl)c3F)n2)cn1 (mixture of isomers) [Example 96, 6-(3-Chloro-6-(difluoromethyl)-2-fluorophenyl)-N-(1-((R and S)-1-(2-((S)-3-hydroxypyrrolidin-1-yl)pyrimidin-5-yl)ethyl)-1H-pyrazol-4-yl)pyrazine-2-carboxamide]
1.4	Cc1nc(N2CCC2)ncc1[C@@H](C)n1cc(NC(=O)c2cncc(-c3c(C(F)F)ccc(Cl)c3F)n2)cn1 (single isomer, unassigned) [Example 70]
5.2	Cc1nc(N2CCC2)ccc1Cn1cc(NC(=O)c2cncc(-c3c(C(F)F)ccc(Cl)c3F)n2)cn1 [Example 9, N-(1-((6-(Azetidin-1-yl)-2-methylpyridin-3-yl)methyl)-1H-pyrazol-4-yl)-6-(3-chloro-6-(difluoromethyl)-2-fluorophenyl)pyrazine-2-carboxamide]
13.3	C[C@@H](c1cnc(N2C[C@@H]3C[C@@H]3[C@@H]2CO)nc1)n1cc(NC(=O)c2cncc(-c3c(C(F)F)ccc(Cl)c3F)n2)cn1 (single isomer, unassigned) [Example 86, 6-(3-Chloro-6-(difluoromethyl)-2-fluorophenyl)-N-(1-((S or R)-1-(2-((1S,2R,5R or 1R,2S,5S)-2-(hydroxymethyl)-3-azabicyclo[3.1.0]hexan-3-yl)pyrimidin-5-yl)ethyl)-1H-pyrazol-4-yl)pyrazine-2-carboxamide]
1.1	CC(c1cnc(N2CC[C@H]2CN2CC[C@H](O)[C@@H](C)C2)nc1)n1cc(NC(=O)c2cncc(-c3c(C(F)F)ccc(Cl)c3F)n2)cn1 (stereo partly drawn) [Example 180, 6-(3-Chloro-6-(difluoromethyl)-2-fluorophenyl)-N-(1-(1-(2-((S)-2-(((3S,4S)-4-hydroxy-3-methylpiperidin-1-yl)methyl)azetidin-1-yl)pyrimidin-5-yl)ethyl)-1H-pyrazol-4-yl)pyrazine-2-carboxamide]
2.7	CN(CCN1CCCC1)c1ccc(Cn2cc(NC(=O)c3cncc(-c4c(C(F)F)ccc(Cl)c4F)n3)cn2)cn1 [Example 114, 6-(3-Chloro-6-(difluoromethyl)-2-fluorophenyl)-N-(1-((6-(methyl(2-(pyrrolidin-1-yl)ethyl)amino)pyridin-3-yl)methyl)-1H-pyrazol-4-yl)pyrazine-2-carboxamide]
1.5	CC(c1cnc(N2CC[C@H]2[C@@H](C)N2CC[C@H](O)[C@@H]2C)nc1)n1cc(NC(=O)c2cncc(-c3c(C(F)F)ccc(Cl)c3F)n2)cn1 (stereo partly drawn) [Example 185, 6-(3-Chloro-6-(difluoromethyl)-2-fluorophenyl)-N-(1-(1-(2-((S)-2-((R)-1-((2S,3S)-3-hydroxy-2-methylpyrrolidin-1-yl)ethyl)azetidin-1-yl)pyrimidin-5-yl)ethyl)-1H-pyrazol-4-yl)pyrazine-2-carboxamide]
31.3	O=C(Nc1cnn(Cc2ccc(N3CC4C(C3)C4(F)F)nc2)c1)c1cncc(-c2c(C(F)F)ccc(Cl)c2F)n1 (stereo not shown) [Example 127, 6-(3-Chloro-6-(difluoromethyl)-2-fluorophenyl)-N-(1-((6-(6,6-difluoro-3-azabicyclo[3.1.0]hexan-3-yl)pyridin-3-yl)methyl)-1H-pyrazol-4-yl)pyrazine-2-carboxamide]
15.4	O=C(Nc1cnn(Cc2cnc(N3CCC3)nc2)c1)c1nc(-c2c(C(F)F)ccc(Cl)c2F)cnc1O [Example 20, N-(1-((2-(Azetidin-1-yl)pyrimidin-5-yl)methyl)-1H-pyrazol-4-yl)-6-(3-chloro-6-(difluoromethyl)-2-fluorophenyl)-3-hydroxypyrazine-2-carboxamide]
1120	CC1C2CC2CN1c1ncc(C(CO)n2cc(NC(=O)c3cncc(-c4c(C(F)F)ccc(Cl)c4F)n3)cn2)cn1 (single isomer, unassigned) [Example 50, 6-(3-Chloro-6-(difluoromethyl)-2-fluorophenyl)-N-(1-((S or R)-2-hydroxy-1-(2-((1R,2S,5S or 1S,2R, 5R)-2-methyl-3-azabicyclo[3.1.0]hexan-3-yl)pyrimidin-5-yl)ethyl)-1H-pyrazol-4-yl)pyrazine-2-carboxamide]
14.1	CN1C2CCC1CN(c1ccc(Cn3cc(NC(=O)c4cncc(-c5c(C(F)F)ccc(Cl)c5F)n4)cn3)cn1)C2 [Example 205, 6-(3-Chloro-6-(difluoromethyl)-2-fluorophenyl)-N-(1-((6-(8-methyl-3,8-diazabicyclo[3.2.1]octan-3-yl)pyridin-3-yl)methyl)-1H-pyrazol-4-yl)pyrazine-2-carboxamide]
1.4	CC(c1cnc(N2CC[C@H]2[C@@H](C)N2CC[C@H](O)C2)nc1)n1cc(NC(=O)c2cncc(-c3c(C(F)F)ccc(Cl)c3F)n2)cn1 (stereo partly drawn) [Example 186, 6-(3-Chloro-6-(difluoromethyl)-2-fluorophenyl)-N-(1-(1-(2-((S)-2-((R)-1-((S)-3-hydroxypyrrolidin-1-yl)ethyl)azetidin-1-yl)pyrimidin-5-yl)ethyl)-1H-pyrazol-4-yl)pyrazine-2-carboxamide]
45	O=C(Nc1cnn(Cc2cnc(N3CCC4CC43)nc2)c1)c1cncc(-c2c(C(F)F)ccc(Cl)c2F)n1 (stereo not shown) [Example 108, N-(1-((2-(2-Azabicyclo[3.1.0]hexan-2-yl)pyrimidin-5-yl)methyl)-1H-pyrazol-4-yl)-6-(3-chloro-6-(difluoromethyl)-2-fluorophenyl)pyrazine-2-carboxamide]
11.8	CC(c1cnc(N(CCO)Cc2ccccn2)nc1)n1cc(NC(=O)c2cncc(-c3c(C(F)F)ccc(Cl)c3F)n2)cn1 (stereo not shown) [Example 85, 6-(3-Chloro-6-(difluoromethyl)-2-fluorophenyl)-N-(1-(1-(2-((2-hydroxyethyl)(pyridin-2-ylmethyl)amino)pyrimidin-5-yl)ethyl)-1H-pyrazol-4-yl)pyrazine-2-carboxamide]
1.8	CC(c1cnc(N2CC[C@H]2CN2CC(O)(C3CC3)C2)nc1)n1cc(NC(=O)c2cncc(-c3c(C(F)F)ccc(Cl)c3F)n2)cn1 (stereo partly drawn) [Example 172, 6-(3-Chloro-6-(difluoromethyl)-2-fluorophenyl)-N-(1-(1-(2-((S)-2-((3-cyclopropyl-3-hydroxyazetidin-1-yl)methyl)azetidin-1-yl)pyrimidin-5-yl)ethyl)-1H-pyrazol-4-yl)pyrazine-2-carboxamide]
3.5	CC(c1cnc(N2CC[C@H]2[C@@H](C)N2CC(C)(O)C2)nc1)n1cc(NC(=O)c2cncc(-c3c(C(F)F)ccc(Cl)c3F)n2)cn1 (stereo partly drawn) [Example 190, 6-(3-Chloro-6-(difluoromethyl)-2-fluorophenyl)-N-(1-(1-(2-((S)-2-((R)-1-(3-hydroxy-3-methylazetidin-1-yl)ethyl)azetidin-1-yl)pyrimidin-5-yl)ethyl)-1H-pyrazol-4-yl)pyrazine-2-carboxamide]
9.3	O=C(Nc1cnn(Cc2cnc(N3CCCC3CNCC(F)F)nc2)c1)c1cncc(-c2c(C(F)F)ccc(Cl)c2F)n1 (stereo not shown) [Example 157, 6-(3-Chloro-6-(difluoromethyl)-2-fluorophenyl)-N-(1-((2-(2-(((2,2-difluoroethyl)amino)methyl)pyrrolidin-1-yl)pyrimidin-5-yl)methyl)-1H-pyrazol-4-yl)pyrazine-2-carboxamide]
12.5	O=C(Nc1cnn(Cc2ccc(N3CCCC3CO)nc2)c1)c1cncc(-c2c(C(F)F)ccc(Cl)c2F)n1 (stereo not shown) [Example 118, 6-(3-Chloro-6-(difluoromethyl)-2-fluorophenyl)-N-(1-((6-(2-(hydroxymethyl)pyrrolidin-1-yl)pyridin-3-yl)methyl)-1H-pyrazol-4-yl)pyrazine-2-carboxamide]
30.5	O=C(Nc1cnn(Cc2ccc(N3CC[C@H]3CO)nc2)c1)c1cncc(-c2c(C(F)F)ccc(Cl)c2F)n1 [Example 126, (S)-6-(3-Chloro-6-(difluoromethyl)-2-fluorophenyl)-N-(1-((6-(2-(hydroxymethyl)azetidin-1-yl)pyridin-3-yl)methyl)-1H-pyrazol-4-yl)pyrazine-2-carboxamide]

target: human factor XIa (Homo sapiens, UniProt P03951); assay: Factor XIa Assay; type: biochemical; details: human factor XIa 0.04 nM, substrate GPR-AFC, 30 min pre-incubation at 25° C., pH 7.4; read-out: FXIa IC50
Protocol: The effectiveness of a compound of the present invention as an inhibitor of Coagulation factor XIa can be determined using a relevant purified serine protease, and an appropriate synthetic substrate. The rate of hydrolysis of the chromogenic or fluorogenic substrate by the relevant serine protease was measured both in the absence and presence of compounds of the present invention. Assays were conducted at rt or at 37° C. […] A decrease in the rate of fluorescence change in the presence of inhibitor is indicative of enzyme inhibition. Such methods are known to one skilled in the art. The results of this assay are expressed as the half-maximal inhibitory concentrations (IC50), or the inhibitory constant, Ki.
Compounds were pre-incubated for 30 min at 25° C. with human (0.04 nM) factor XIa in 50 mM HEPES buffer with 150 mM sodium chloride, 5 mM calcium chloride, 0.1% PEG 8000, pH 7.4. factor XIa enzymatic activity was determined by addition of the substrate glycine-proline-arginine-7-amido-4-trifluoromethylcoumarin (GPR-AFC) and measurement of the fluorescence at 400/505 nm after a 60 min incubation at 25° C. The % inhibition for each data point was calculated from the data and analyzed using the log (inhibitor) vs. response four parameters equation to determine the half-maximal inhibitory concentrations (IC50). The IC50 were converted to equilibrium inhibitory constants (Ki) using the Cheng-Prusoff equation.

human factor XIa, sequence (P03951 388-625 limits assumed): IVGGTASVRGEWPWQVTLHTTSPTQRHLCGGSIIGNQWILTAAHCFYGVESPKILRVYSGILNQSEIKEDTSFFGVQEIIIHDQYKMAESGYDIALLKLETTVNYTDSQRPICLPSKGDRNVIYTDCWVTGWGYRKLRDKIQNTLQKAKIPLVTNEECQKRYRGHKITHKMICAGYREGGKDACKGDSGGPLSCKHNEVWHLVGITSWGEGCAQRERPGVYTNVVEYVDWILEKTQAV
human factor XIa, sequence (P03951 19-387 partner limits assumed): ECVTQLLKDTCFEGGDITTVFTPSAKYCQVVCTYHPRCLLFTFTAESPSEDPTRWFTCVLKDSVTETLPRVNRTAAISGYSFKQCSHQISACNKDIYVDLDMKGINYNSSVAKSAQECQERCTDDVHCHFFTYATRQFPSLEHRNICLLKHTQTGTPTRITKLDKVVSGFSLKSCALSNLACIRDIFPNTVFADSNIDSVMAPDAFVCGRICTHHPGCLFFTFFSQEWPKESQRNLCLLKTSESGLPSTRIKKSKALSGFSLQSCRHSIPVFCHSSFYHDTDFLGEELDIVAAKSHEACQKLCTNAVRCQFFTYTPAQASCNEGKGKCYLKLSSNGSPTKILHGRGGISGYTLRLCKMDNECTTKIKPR

IC50 [nM]	Compound
1490	O=C(Nc1cnn(Cc2cnc(N3C[C@H]4C[C@H]4[C@H]3CO)nc2)c1)c1cncc(-c2c(C(F)F)ccc(Cl)c2F)n1 [Example 73, 6-(3-Chloro-6-(difluoromethyl)-2-fluorophenyl)-N-(1-((2-((1R,2S,5S)-2-(hydroxymethyl)-3-azabicyclo[3.1.0]hexan-3-yl)pyrimidin-5-yl)methyl)-1H-pyrazol-4-yl)pyrazine-2-carboxamide]
3710	CC(c1cnc(N2CC[C@H](O)C2)nc1)n1cc(NC(=O)c2cncc(-c3c(C(F)F)ccc(Cl)c3F)n2)cn1 (mixture of isomers) [Example 96, 6-(3-Chloro-6-(difluoromethyl)-2-fluorophenyl)-N-(1-((R and S)-1-(2-((S)-3-hydroxypyrrolidin-1-yl)pyrimidin-5-yl)ethyl)-1H-pyrazol-4-yl)pyrazine-2-carboxamide]
485	Cc1nc(N2CCC2)ncc1[C@@H](C)n1cc(NC(=O)c2cncc(-c3c(C(F)F)ccc(Cl)c3F)n2)cn1 (single isomer, unassigned) [Example 70]
5100	Cc1nc(N2CCC2)ccc1Cn1cc(NC(=O)c2cncc(-c3c(C(F)F)ccc(Cl)c3F)n2)cn1 [Example 9, N-(1-((6-(Azetidin-1-yl)-2-methylpyridin-3-yl)methyl)-1H-pyrazol-4-yl)-6-(3-chloro-6-(difluoromethyl)-2-fluorophenyl)pyrazine-2-carboxamide]
1480	O=C(Nc1cnn(Cc2cnc(N3C[C@H]4C[C@H]4[C@H]3CN[C@H]3CCC[C@@H]3O)nc2)c1)c1cncc(-c2c(C(F)F)ccc(Cl)c2F)n1 [Example 149, 6-(3-Chloro-6-(difluoromethyl)-2-fluorophenyl)-N-(1-((2-((1R,2S,5S)-2-((((1S,2S)-2-hydroxycyclopentyl)amino)methyl)-3-azabicyclo[3.1.0]hexan-3-yl)pyrimidin-5-yl)methyl)-1H-pyrazol-4-yl)pyrazine-2-carboxamide]
